# According to patent publication US11667632B2, “2-(1H-indazol-3-yl)-3H-imidazo[4,5-C]pyridines and their anti-inflammatory uses thereof” (BioSplice Therapeutics, Inc., priority 2015, dated 2023):
# Test system: Interleukin 6 (IL-6)
# Assay: Inhibition of IL-6 secretion in IL-1β-stimulated synovial fibroblasts (SW982), ELISA
# Assay type: cell-based
# Settings: human synovial fibroblasts stimulated with IL-1β, treated 24 hrs, FIG. 14A
# Description: Synovial fibroblasts (SW982 cells; ATCC) were cultured in Leibovitz's L-15 Medium (ATCC) with 10% FBS at 37° C. and 0% CO2. 24 hours before the start of the assay, media was changed to Leibovitz's L-15 Medium with […]. Compound 10 was dissolved in DMSO as a 10 mM stock and used to prepare compound source plates. A serial dilution (8-point dose-response) and compound transfer was performed using the ECHO 550 (Labcyte, Sunnyvale, Calif.) into 96-well clear bottom assay plates (Greiner Bio-One) with appropriate DMSO backfill for a final DMSO concentration of 0.05%. […] Plates were spun in a centrifuge for 1 minute at 10,000 rpm and supernatants were collected for ELISA.
# Supernatants were diluted 1:1 for the TNFα assay and 1:4 for the IL6 assay using the assay medium. ELISA was performed using Human TNF-α ELISA MAX™ Deluxe (Catalog #430204, Biolegend, San Diego, Calif.) and Human IL-6 ELISA MAX™ Deluxe (Catalog #430504, Biolegend, San Diego, Calif.) kits. […] Following several washes to remove unbound avidin-HRP, the TMB substrate was added and the plates were read on the Cytation 3 plate reader (Biotek Inc., Winooski, Vt.) at an absorbance of 450 nm with correction at 570 nm. […] Inhibition profile and EC50 was calculated using Prism 5 (GraphPad Software Inc, La Jolla, Calif., USA).
compound,measurement,value
CC(C)CC(=O)Nc1cncc(-c2ccc3[nH]nc(-c4nc5c(-c6cccc(F)c6)cncc5[nH]4)c3c2)c1 [Compound 10],inhibition of IL-6 secretion,inhibition
